Experimental data published in ChEMBL document CHEMBL2321689, “Design, synthesis and evaluation of novel heterodimers of donepezil and huperzine fragments as acetylcholinesterase inhibitors” (Bioorg Med Chem, 2013).
Active and inactive are the calls of the source. The calls are words filed in the database; no cut-off is given here.

Columns and labels:
Acetylcholinesterase = target: T1, Acetylcholinesterase (Rattus norvegicus, UniProt P37136)
T1 sequence (P37136 whole entry): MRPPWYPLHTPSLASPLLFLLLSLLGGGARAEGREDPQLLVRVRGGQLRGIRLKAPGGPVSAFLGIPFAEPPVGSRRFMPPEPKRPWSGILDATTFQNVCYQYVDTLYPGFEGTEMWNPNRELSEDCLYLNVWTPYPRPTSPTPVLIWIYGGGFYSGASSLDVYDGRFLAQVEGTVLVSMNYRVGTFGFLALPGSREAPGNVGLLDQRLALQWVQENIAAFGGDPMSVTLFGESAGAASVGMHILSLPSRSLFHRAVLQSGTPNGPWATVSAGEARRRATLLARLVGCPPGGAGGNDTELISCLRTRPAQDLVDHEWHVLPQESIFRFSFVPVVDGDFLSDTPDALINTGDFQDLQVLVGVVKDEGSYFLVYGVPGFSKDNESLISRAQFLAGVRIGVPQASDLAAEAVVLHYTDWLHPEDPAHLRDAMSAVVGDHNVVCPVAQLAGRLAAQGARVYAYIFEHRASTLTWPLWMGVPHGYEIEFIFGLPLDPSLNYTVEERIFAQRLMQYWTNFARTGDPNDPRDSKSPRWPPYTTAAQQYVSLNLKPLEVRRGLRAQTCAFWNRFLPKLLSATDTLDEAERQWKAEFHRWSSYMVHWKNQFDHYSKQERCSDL
Description: Inhibition of AChE in Sprague-Dawley rat cortices using acetylthiocholine iodide as substrate by Ellman's method

tissue or blood = settings: Rattus norvegicus, Sprague-Dawley, Serum
Description: Inhibition of BuChE in Sprague-Dawley rat serum by Ellman's method

Rattus norvegicus = organism: Rattus norvegicus; test: Inhibition of BuChE in Sprague-Dawley rat serum at 1 mM by Ellman's method; format: cell-free

COc1ccc(OCCCCCCN[C@H]2CCCc3[nH]c(=O)ccc32)cc1OC gave an IC50 (Acetylcholinesterase) of 3.95 µM and an IC50 (tissue or blood) of 17.7 µM.
For COc1cc2c(cc1OC)C(=O)C(CCCCCCN[C@H]1CCCc3[nH]c(=O)ccc31)C2 (mixture of isomers), the inhibition (Rattus norvegicus) was “inactive” and the IC50 (Acetylcholinesterase) was 0.037 µM.
With COc1ccc(C(=O)OCCCCCN[C@H]2CCCc3[nH]c(=O)ccc32)cc1OC the IC50 (Acetylcholinesterase) was 7.2 µM and the IC50 (tissue or blood) was 460 µM.
With COc1cc2c(cc1OC)C(=O)C(CCCCN[C@H]1CCCc3[nH]c(=O)ccc31)C2 (mixture of isomers) the inhibition (Rattus norvegicus) was “inactive” and the IC50 (Acetylcholinesterase) was 0.009 µM.
C/C=C1\[C@H]2C=C(C)C[C@]1(N)c1ccc(=O)[nH]c1C2 [HUPERZINE A] gave an IC50 (Acetylcholinesterase) of 0.065 µM and an IC50 (tissue or blood) of 74 µM.
In the case of COc1cc2c(cc1OC)C(=O)C(CCCCN[C@@H]1CCCc3[nH]c(=O)ccc31)C2 (mixture of isomers), the inhibition (Rattus norvegicus) is reported as “inactive” and the IC50 (Acetylcholinesterase) is reported as 0.53 µM.
COc1ccc(C(=O)OCCCCN[C@H]2CCCc3[nH]c(=O)ccc32)cc1OC showed an IC50 (Acetylcholinesterase) of 4.1 µM and an IC50 (tissue or blood) of 15 µM.
For COc1cc2c(cc1OC)C(=O)C(CCCCCN[C@H]1CCCc3[nH]c(=O)ccc31)C2 (mixture of isomers), the inhibition (Rattus norvegicus) was “inactive” and the IC50 (Acetylcholinesterase) was 0.187 µM.
Compound COc1ccc(C(=O)OCCCCCCCN[C@H]2CCCc3[nH]c(=O)ccc32)cc1OC has an IC50 (Acetylcholinesterase) of 8.2 µM and an IC50 (tissue or blood) of 194 µM.
COc1cc2c(cc1OC)C(=O)C(CCCCCCCCCN[C@H]1CCCc3[nH]c(=O)ccc31)C2 (mixture of isomers) showed an IC50 (Acetylcholinesterase) of 2.6 µM and an IC50 (tissue or blood) of 678 µM.
COc1cc2c(cc1OC)C(=O)C(CCCCCCCN[C@H]1CCCc3[nH]c(=O)ccc31)C2 (mixture of isomers) showed an IC50 (Acetylcholinesterase) of 1.86 µM and an IC50 (tissue or blood) of 413 µM.
Compound COc1ccc(C(=O)NCCCCCN[C@H]2CCCc3[nH]c(=O)ccc32)cc1OC has an IC50 (Acetylcholinesterase) of 12 µM and an IC50 (tissue or blood) of 33 µM.
With COc1ccc(C(=O)NCCCN[C@H]2CCCc3[nH]c(=O)ccc32)cc1OC the IC50 (Acetylcholinesterase) was 88 µM and the IC50 (tissue or blood) was 139 µM.
In the case of COc1cc2c(cc1OC)C(=O)C(CCCN[C@H]1CCCc3[nH]c(=O)ccc31)C2 (mixture of isomers), the inhibition (Rattus norvegicus) is reported as “inactive” and the IC50 (Acetylcholinesterase) is reported as 41 µM.
Compound COc1ccc(OCCCCCN[C@H]2CCCc3[nH]c(=O)ccc32)cc1OC has an IC50 (Acetylcholinesterase) of 0.59 µM and an IC50 (tissue or blood) of 42 µM.
COc1ccc(C(=O)OCCCN[C@H]2CCCc3[nH]c(=O)ccc32)cc1OC showed an IC50 (Acetylcholinesterase) of 162 µM and an IC50 (tissue or blood) of 860 µM.
For COc1ccc(C(=O)OCCCCCCCCCN[C@H]2CCCc3[nH]c(=O)ccc32)cc1OC, the IC50 (Acetylcholinesterase) was 9.67 µM and the IC50 (tissue or blood) was 308 µM.
